From patent publication US20130281493A1, “Method for Treating Cancer Harboring a p53 Mutation” (The Trustees of The University of Columbia in the City of …, priority 2010, published 2013)
Each block holds one molecule with its values, some of them ahead of it.

Legend:
MDA-231 cells [1] = test: 3D culture of MDA-231 breast cancer cells (growth, invasive morphology); assay type: cell-based
Description: (§1) Cells were then seeded at a density of 5,000 cells/well in Assay Medium (DMEM/F12+2% Horse Serum+10 μg/ml Insulin+0.5 μg/ml Hydrocortisone [+5 ng/ml EGF for MCF10A cultures]) containing 2% Matrigel.
(§2) Cells were fixed using 2% formaldehyde at room temperature for at least 30 min. […] Primary antibodies were incubated with the cultures for 1-2 hr at room temperature, followed by washing, and addition of fluorescently-conjugated secondary antibodies for 40 min at room temperature. Nuclei were counterstained with DRAQ5 (Cell Signaling #4084) or Propidium Iodide (Sigma #P4170). Confocal microscopy was conducted using an Olympus IX81 confocal microscope and analyzed using Fluoview software.
(§3) Cells were treated on Day 1 or Day 4 of the 3D protocol (as described in the figure legends) and refed every 4 days with fresh drug. […] This range approximates clinically achievable serum concentrations in human patients (Dimitroulakos et al., 1999; Wong et al., 2002), • 6-Fluoromevalonate (200 μM) as previously described (Cuthbert and Lipsky, 1990) and YM-53601, FTI-277 or GTI-2133 at or above their reported IC50 in cells (Lerner et al., 1995; Ugawa et al., 2000; Vasudevan et al., 1999), and with • Fatostatin at either 2 μM or 20 μM as previously described (Kamisuki et al., 2009).

MDA-468 cells = test: 3D culture of MDA-468 breast cancer cells (growth, morphology); assay type: cell-based
Description: as §1, §2, §3

MCF10A cells = test: 3D culture of non-malignant MCF10A mammary epithelial cells (acinar morphology, luminal clearance); assay type: cell-based, human; conditions: 1 mM, 8 days
Description: Cells were fixed using 2% formaldehyde at room temperature for at least 30 min. […] Primary antibodies were incubated with the cultures for 1-2 hr at room temperature, followed by washing, and addition of fluorescently-conjugated secondary antibodies for 40 min at room temperature. Nuclei were counterstained with DRAQ5 (Cell Signaling #4084) or Propidium Iodide (Sigma #P4170). Confocal microscopy was conducted using an Olympus IX81 confocal microscope and analyzed using Fluoview software. Cells were treated on Day 1 or Day 4 of the 3D protocol (as described in the figure legends) and refed every 4 days with fresh drug. […] This range approximates clinically achievable serum concentrations in human patients (Dimitroulakos et al., 1999; Wong et al., 2002), • 6-Fluoromevalonate (200 μM) as previously described (Cuthbert and Lipsky, 1990) and YM-53601, FTI-277 or GTI-2133 at or above their reported IC50 in cells (Lerner et al., 1995; Ugawa et al., 2000; Vasudevan et al., 1999), and with • Fatostatin at either 2 μM or 20 μM as previously described (Kamisuki et al., 2009).

MDA-468.shp53 cells = test: Add-back in 3D culture of MDA-468.shp53 cells depleted of mutant p53 (+DOX); assay type: cell-based; conditions: MVA and MVAP added together, 1 mM each, from Day 1, 8 days
Description: (§4) Three-dimensional culture was carried out as previously described (Debnath et al., 2003). Briefly, 8-well chamber slides were lined with 50 μl growth factor reduced Matrigel (BD Biosciences). […] Cells were refed with Assay Medium containing 2% Matrigel every 4 days. For RNA/protein analysis from 3D cultures, 35 mm plates were lined with 500 μl Matrigel and cells were seeded at a density of 225,000 cells/plate in Assay Medium+2% Matrigel. Cells were harvested using Cell Recovery Solution (BD Biosciences) according to the manufacturer's instructions.

farnesyltransferase = farnesyltransferase (Homo sapiens, UniProt P49354+P49356); conditions: whole cells; Lerner et al., 1995; cited from earlier work
[2] = biological target: geranylgeranyl transferase (Homo sapiens, UniProt P49354+P53609); conditions: low micromolar concentrations; Lerner et al., 1995; cited from earlier work
squalene synthesis = conditions: low micromolar concentrations; Lerner et al., 1995; cited from earlier work
MDA-231.shp53 cells = conditions: 25 μM from Day 1, 8 days, +DOX
Description: as §4

[3] = Serum level at the dose used in the mouse experiments; assay type: in vivo; conditions: mice, 200 mg/kg/day
MDA-231 cells [4] = test: MDA-231 subcutaneous tumor growth in NOD-SCID mice; assay type: in vivo; conditions: 200 mg/kg/day, after 21 days of treatment
Description: 2×10^6 MDA-231 cells were injected subcutaneously into 8 week-old NOD-SCID mice. […] Tumor measurements were performed weekly using calipers. After 21 days of treatment, mice were sacrificed and tumors were extracted and weighed. Tumor volumes as a function of time (left) and tumor weights at day 21 (right) are presented. *denotes p<0.01, **denotes p<0.001 using a two-tailed students t-test. […] 2×10^6 MDA-231 cells were injected subcutaneously into 8 week-old NOD-SCID mice. […] Tumor measurements were performed weekly using calipers. After 21 days of treatment, mice were sacrificed and tumors were extracted and weighed. Tumor volumes as a function of time (left) and tumor weights at day 21 (right) are presented. *denotes p<0.01, **denotes p<0.001 using a two-tailed students t-test.

squalene synthase = biological target: T1, squalene synthase (Homo sapiens, UniProt P37268); conditions: Ugawa et al., 2000; cited from earlier work
T1 sequence (P37268 1-417): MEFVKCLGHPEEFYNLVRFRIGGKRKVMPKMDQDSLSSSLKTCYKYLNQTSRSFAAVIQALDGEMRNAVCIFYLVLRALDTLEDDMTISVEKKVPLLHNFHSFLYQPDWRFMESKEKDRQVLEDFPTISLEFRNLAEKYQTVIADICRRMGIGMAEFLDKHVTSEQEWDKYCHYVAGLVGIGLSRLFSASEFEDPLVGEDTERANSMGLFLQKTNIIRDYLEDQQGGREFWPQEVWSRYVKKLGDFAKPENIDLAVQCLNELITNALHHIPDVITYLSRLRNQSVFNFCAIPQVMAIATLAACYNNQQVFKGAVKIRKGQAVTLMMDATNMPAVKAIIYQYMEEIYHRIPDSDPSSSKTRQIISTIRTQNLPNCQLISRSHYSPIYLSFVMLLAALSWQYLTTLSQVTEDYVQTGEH

SMILES: C[C@@](O)(CCO)CC(=O)O (racemic) [mevalonic acid]
- rescue of the phenotypic effects of statin treatment in 3D culture (MDA-231 cells [1]; MDA-231 treated with Simvastatin 1 μM, supplemented): blocked many of the phenotypic effects of statins
- rescue of the phenotypic effects of statin treatment in 3D culture (MDA-468 cells; MDA-468 treated with Simvastatin 1 μM, supplemented): blocked many of the phenotypic effects of statins
- luminal clearance in MCF10A cells (MCF10A cells): sufficient to block luminal clearance
- effect on phenotypic reversion caused by mutant p53 knockdown (MDA-468.shp53 cells): dramatically inhibit

SMILES: O=C(O)CC(O)(CF)CCO (stereo not drawn) [6-fluoromevalonate, 6-Fluoromevalonate]
- phenotypic effects in 3D culture compared with HMG-CoA reductase inhibition by statins (MDA-231 cells [1]; MDA-231, 200 μM, added Day 1, 8 days): remarkably similar phenotypic effects
- phenotypic effects in 3D culture compared with HMG-CoA reductase inhibition by statins (MDA-468 cells; MDA-468, 200 μM, added Day 1, 8 days): remarkably similar phenotypic effects

SMILES: COC(=O)[C@H](CCSC)NC(=O)c1ccc(NC[C@@H](N)CS)cc1-c1ccccc1 [FTI-277]
- effect on growth of MDA-231 cells in 3D culture (MDA-231 cells [1]; 1 uM, added Day 1, 8 days): only a mild effect
- concentrations that block farnesylation via inhibition of farnesyltransferase (farnesyltransferase): nanomolar
- effect on geranylgeranyl transferase [2]: no effect
- effect on squalene synthesis (squalene synthesis): no effect

SMILES: CC(C)C[C@H](NC(=O)c1ccc(NCc2cnc[nH]2)cc1-c1cccc2ccccc12)C(=O)O [GTI-2133]
- effect on growth of MDA-231 cells in 3D culture (MDA-231 cells [1]; 1 uM, added Day 1, 8 days): profound impact
- effect on invasive morphology of MDA-231 cells in 3D culture (MDA-231 cells [1]; 1 uM, added Day 1, 8 days): profound impact

SMILES: CC(C)=CCC/C(C)=C/CC/C(C)=C/CC/C(C)=C/COP(=O)(O)OP(=O)(O)O [Geranylgeranyl pyrophosphate]
- rescue of the morphological effects of mutant p53 depletion (MDA-231.shp53 cells): partially rescue
- rescue of the morphological effects of HMG-CoA reductase inhibition (MDA-231 cells [1]; MDA-231 with Simvastatin 1 μM, 25 μM GGPP, 8 days): partially rescue

SMILES: CC[C@H](C)C(=O)O[C@H]1CCC=C2C=C[C@H](C)[C@H](CC[C@@H]3C[C@@H](O)CC(=O)O3)[C@H]21 [Mevastatin]
- 3D morphology of MDA-231 cells (MDA-231 cells [1]; 1 μM, added Day 4, 13 days): profoundly affects
- 3D morphology of MDA-468 cells (MDA-468 cells; 1 μM, added Day 4, 13 days): profoundly affects

- serum levels [3]: about 100 micromolar
SMILES: CCC(C)(C)C(=O)O[C@H]1C[C@@H](C)C=C2C=C[C@H](C)[C@H](CC[C@@H]3C[C@@H](O)CC(=O)O3)[C@H]21 [Simvastatin]
- reduction of tumor size (MDA-231 cells [4]): about 40%

SMILES: F/C(COc1ccc2c(c1)[nH]c1ccccc12)=C1/CN2CCC1CC2 [YM-53601]
- effect on growth of MDA-231 cells in 3D culture (MDA-231 cells [1]; 1 uM, added Day 1, 8 days): only a mild effect
- killing of cancer cells in 3D culture (MDA-231 cells [1]; 10 uM): killed all the cancer cells
- concentrations that inhibit squalene synthase (squalene synthase): submicromolar
